Source: US20060264408A1, “Sod minic multifunctional compounds for treating inflammatory bowel disease” (priority 2003, published 2006)

Tested on: acetic acid-induced colitis
Experiment: acetic acid-induced colitis in rats: oxidative stress markers (PCC, TBARS) in colonic tissue
Conditions: for activity compared with 5-ASA and lipoic acid: acetic acid-induced rat colitis; for TBARS (thiobarbituric acid reactive substrates), Pre-treatment / PCC (tissue protein carbonyl content), Pre-treatment: administered 10 minutes before induction of colitis; for TBARS (thiobarbituric acid reactive substrates), Pre-treatment / PCC (tissue protein carbonyl content), Pre-treatment / TBARS (thiobarbituric acid reactive substrates), Post-treatment / PCC (tissue protein carbonyl content), Post-treatment: 5-ASA 100 mg/kg, LA 50 mg/kg, compounds 1 and 7 50 mg/kg, sacrificed 24 hr post induction; for TBARS (thiobarbituric acid reactive substrates), Pre-treatment: control 18 ± 4, AA alone 187 ± 14; for PCC (tissue protein carbonyl content), Pre-treatment: control 261 ± 27, AA alone 1687 ± 98; for TBARS (thiobarbituric acid reactive substrates), Post-treatment / PCC (tissue protein carbonyl content), Post-treatment: administered 30 minutes after induction of colitis; for TBARS (thiobarbituric acid reactive substrates), Post-treatment: control 15 ± 3, AA alone 163 ± 14; for PCC (tissue protein carbonyl content), Post-treatment: control 273 ± 21, AA alone 1587 ± 95; for treated rats compared with control healthy rats (PCC, TBARS): results of the table, P<0.05

Row | Compound | activity compared with 5-ASA and lipoic acid | TBARS (thiobarbituric acid reactive substrates), Pre-treatment | PCC (tissue protein carbonyl content), Pre-treatment | TBARS (thiobarbituric acid reactive substrates), Post-treatment | PCC (tissue protein carbonyl content), Post-treatment | treated rats compared with control healthy rats (PCC, TBARS)
1 | O=C(O)c1cc2[nH]c(CCCCC3CCSS3)nc2cc1O (stereo not drawn) [Compound 7] | more active than either of LA or ASA used separately or even simultaneously | 21 ± 3 | 284 ± 26 | 19 ± 2 | 269 ± 28 | statistically indifferent from control healthy rats
2 | Cc1cc(O)c(C(=O)O)cc1/N=N\c1ccc2c(c1)C(C)(C)N([O])C2(C)C [Compound 1] | more active than either of LA or ASA used separately or even simultaneously | 27 ± 4 | 293 ± 33 | 18 ± 3 | 278 ± 32 | statistically indifferent from control healthy rats
3 | O=C(O)CCCC[C@@H]1CCSS1 (racemic) [lipoic acid, reference compound] | as effective as 5-ASA | 73 ± 8 | 867 ± 73 | 64 ± 8 | 713 ± 31 | –
4 | Nc1ccc(O)c(C(=O)O)c1 [Compound 5-ASA, 5-aminosalicylic acid, reference compound] | – | 89 ± 9 | 959 ± 48 | 74 ± 9 | 873 ± 79 | –
